Reference: ChEMBL document CHEMBL1201862, “PubChem BioAssay data set” (2004)
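Exposure lasted 48 hours, with cells grown in 96-well plates and compounds tested at five concentrations. GI50: concentration for 50% inhibition of growth.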 The source made the active and inactive calls. Cut-off read from the data, not from the text of the source: active = GI50 up to about 1.1 µM and inactive = higher.

Assays:
Assay in all cases: NCI-60 cell line screen, 48 h
[1] = test system: CCRF-CEM
[2] = test system: HCC 2998
[3] = test system: IGROV-1
[4] = test system: K562
[5] = test system: Malme-3M
[6] = test system: NCI-H460
[7] = test system: OVCAR-5
[8] = test system: SF-295
[9] = test system: SK-MEL-5
[10] = test system: SN12C
[11] = test system: SR
[12] = test system: SW-620
[13] = test system: TK-10
[14] = test system: UACC-257
[15] = test system: HOP-92
[16] = test system: KM12

Row | Compound | GI50 [1] | GI50 [2] | GI50 [3] | GI50 [4] | GI50 [5] | GI50 [6] | GI50 [7] | GI50 [8] | GI50 [9] | GI50 [10] | GI50 [11] | GI50 [12] | GI50 [13] | GI50 [14] | GI50 [15] | GI50 [16]
1 | CCCN(CCC)c1c([N+](=O)[O-])cc(C(=O)N(CC)CC)cc1[N+](=O)[O-] | 20.8 µM (inactive) | 37.1 µM (inactive) | 32.3 µM (inactive) | 12.6 µM (inactive) | 16.3 µM (inactive) | 15.9 µM (inactive) | 30.9 µM (inactive) | 23 µM (inactive) | 13.3 µM (inactive) | 22.4 µM (inactive) | 14.8 µM (inactive) | 28.6 µM (inactive) | 29 µM (inactive) | 16.3 µM (inactive) |  | 
2 | C1=c2ccccc2=C2C(=C(c3ccccc3)C(c3ccccc3)=NN2c2ccccc2)S1 | > 100 µM (inactive) | > 100 µM (inactive) | > 100 µM (inactive) | > 100 µM (inactive) | > 100 µM (inactive) | > 100 µM (inactive) | > 100 µM (inactive) | > 100 µM (inactive) | > 100 µM (inactive) | > 100 µM (inactive) |  | 91.4 µM (inactive) | > 100 µM (inactive) | > 100 µM (inactive) | > 100 µM (inactive) | > 100 µM (inactive)
3 | O=c1c(Sc2c(O)c3ccccc3c3ccccc3c2=O)c(O)c2ccccc2c2ccccc12 | 14 µM (inactive) | 32.7 µM (inactive) | 47.2 µM (inactive) | 33.7 µM (inactive) | 25.2 µM (inactive) | 17.6 µM (inactive) | 53.2 µM (inactive) | 55.7 µM (inactive) | 29.9 µM (inactive) | 20.9 µM (inactive) |  | 63.8 µM (inactive) | > 100 µM (inactive) | 41.9 µM (inactive) | 29.3 µM (inactive) | 93.1 µM (inactive)
4 | CC(C)S(=O)(=O)n1c(N)nc2ccc(/C(=N/O)c3ccccc3)cc21 [ENVIROXIME] | 10.6 µM (inactive) | 22 µM (inactive) | 19 µM (inactive) | 27.2 µM (inactive) | 45.4 µM (inactive) | 26.1 µM (inactive) | 21 µM (inactive) | 18.2 µM (inactive) |  | 27.8 µM (inactive) | 0.223 µM (active) | 21.8 µM (inactive) | 32.4 µM (inactive) | 44.5 µM (inactive) | 3.61 µM (inactive) | 20.6 µM (inactive)
5 | O=C(O)C12C3CCCC1C2CC3 (stereo not given) | > 100 µM (inactive) |  | > 100 µM (inactive) | > 100 µM (inactive) | > 100 µM (inactive) | > 100 µM (inactive) | > 100 µM (inactive) | > 100 µM (inactive) | > 100 µM (inactive) | > 100 µM (inactive) | > 100 µM (inactive) |  | > 100 µM (inactive) | > 100 µM (inactive) | > 100 µM (inactive) | > 100 µM (inactive)
6 | COc1ccc(C2=NN(C(C)=O)c3nc4ccccc4nc3O2)cc1 | > 100 µM (inactive) | > 100 µM (inactive) | 3.33 µM (inactive) | > 100 µM (inactive) | 70.6 µM (inactive) | 32.1 µM (inactive) |  | 26.1 µM (inactive) |  | > 100 µM (inactive) | > 100 µM (inactive) | > 100 µM (inactive) | 21.3 µM (inactive) | 50.8 µM (inactive) | 16.4 µM (inactive) | > 100 µM (inactive)
7 | CCCCCC#COC1CC(C)CC[C@@H]1C(C)C (stereo not given in full) | 15.4 µM (inactive) | > 100 µM (inactive) | 27.7 µM (inactive) | 27.9 µM (inactive) | > 100 µM (inactive) | 23.8 µM (inactive) | 71.4 µM (inactive) | 39.2 µM (inactive) | > 100 µM (inactive) | > 100 µM (inactive) |  | 18.5 µM (inactive) | > 100 µM (inactive) | 46.2 µM (inactive) | > 100 µM (inactive) | 98.9 µM (inactive)
8 | Clc1ccc(/N=N/c2nc3ccccc3nc2/N=N/c2ccc(Cl)cc2Cl)c(Cl)c1 |  | > 100 µM (inactive) | > 100 µM (inactive) | 44.6 µM (inactive) | > 100 µM (inactive) | > 100 µM (inactive) |  | > 100 µM (inactive) |  | > 100 µM (inactive) | 33.5 µM (inactive) | > 100 µM (inactive) | > 100 µM (inactive) | > 100 µM (inactive) | 44 µM (inactive) | > 100 µM (inactive)
9 | CC(O)C1OC(n2ccc(=O)[nH]c2=O)CC1n1cncn1 (stereo not given) | > 100 µM (inactive) | > 100 µM (inactive) | > 100 µM (inactive) | > 100 µM (inactive) | > 100 µM (inactive) | > 100 µM (inactive) | > 100 µM (inactive) | > 100 µM (inactive) | > 100 µM (inactive) | > 100 µM (inactive) | > 100 µM (inactive) | > 100 µM (inactive) | > 100 µM (inactive) | > 100 µM (inactive) |  | > 100 µM (inactive)
